Assays:
A549 cells = test: Proliferation Assay (A549 viability, Cell Titer Fluor, 72 hours); assay type: cell-based; details: Homo sapiens, A549, 72 h
Outline: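 Cell Titer Fluor fluorescence after 72 h compound treatment (0.5% DMSO, 37 °C, 5% CO2) of A549 cells plated 24 h earlier at 1000/well. Four-parameter logistic fitting gave IC50.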

[1] = target: purified recombinant human GAC (GLS1) (Homo sapiens (Human), UniProt O94925); test: GLS1 Enzymatic Activity Assay (dual-coupled enzymatic assay, resorufin/Amplex UltraRed readout); assay type: biochemical;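 further: glutamate from GAC coupled via glutamate oxidase and peroxidase to resorufin, read as fluorescence (ex 530, em 590 nm) kinetically or at 20 min, four-parameter logistic IC50 fit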
Sequence of purified recombinant human GAC (GLS1) (O94925 other isoform, or with tags, fused parts or gaps): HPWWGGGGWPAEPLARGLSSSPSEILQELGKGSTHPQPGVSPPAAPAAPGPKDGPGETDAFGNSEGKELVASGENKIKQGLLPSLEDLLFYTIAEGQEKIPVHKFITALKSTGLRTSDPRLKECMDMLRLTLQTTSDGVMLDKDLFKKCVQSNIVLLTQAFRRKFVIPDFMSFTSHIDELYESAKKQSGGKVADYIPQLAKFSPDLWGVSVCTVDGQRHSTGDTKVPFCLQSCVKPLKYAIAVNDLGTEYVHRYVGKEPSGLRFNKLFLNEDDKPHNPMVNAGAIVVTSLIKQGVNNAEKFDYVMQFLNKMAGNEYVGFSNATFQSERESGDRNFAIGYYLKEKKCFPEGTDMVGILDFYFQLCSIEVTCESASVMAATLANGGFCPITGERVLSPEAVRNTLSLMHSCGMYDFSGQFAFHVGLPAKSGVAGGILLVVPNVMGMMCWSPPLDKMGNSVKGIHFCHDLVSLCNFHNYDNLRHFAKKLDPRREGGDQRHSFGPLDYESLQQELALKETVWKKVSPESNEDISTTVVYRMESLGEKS

Row | SMILES | EC50 (A549 cells) [nM] | IC50 [1] [nM]
1 | CC(C)COC(=O)NCc1cn(CCCCn2cc(C(=O)NCc3cccc(OC(F)(F)F)c3)nn2)nn1 [Example 56, 2-methylpropyl N-[(1-{4-[4-({[3-(trifluoromethoxy)phenyl]methyl}carbamoyl)-1H-1,2,3-triazol-1-yl]butyl}-1H-1,2,3-triazol-4-yl)methyl]carbamate] | < 100 | < 100
2 | O=C(NCc1cccc(OC(F)(F)F)c1)c1cn(CCCCc2nnc(C(=O)NCC3CC3)s2)nn1 [Example 59, N-(cyclopropylmethyl)-5-{4-[4-({[3-(trifluoromethoxy)phenyl]methyl}carbamoyl)-1H-1,2,3-triazol-1-yl]butyl}-1,3,4-thiadiazole-2-carboxamide] | 500 to 5000 | 100 to 500
3 | O=C(Cc1cccc(OC(F)(F)F)c1)Nc1cn(CC(F)CCn2cc(C(=O)NCc3cccc(C(F)(F)F)n3)nn2)nn1 (stereo not drawn) [Example 487, 1-[3-fluoro-4-(4-{2-[3-(trifluoromethoxy)phenyl]acetamido}-1H-1,2,3-triazol-1-yl)butyl]-N-{[6-(trifluoromethyl)pyridin-2-yl]methyl}-1H-1,2,3-triazole-4-carboxamide] | < 100 | < 100
4 | O=C(NCc1cccc(OC(F)(F)F)c1)c1cn(CC(F)CCc2nnc(C(=O)NCc3cc(C(F)(F)F)ccn3)s2)nn1 (stereo not drawn) [Example 463, 5-{3-fluoro-4-[4-({[3-(trifluoromethoxy)phenyl]methyl}carbamoyl)-1H-1,2,3-triazol-1-yl]butyl}-N-{[4-(trifluoromethyl)pyridin-2-yl]methyl}-1,3,4-thiadiazole-2-carboxamide] | < 100 | < 100
5 | O=C(NCc1cccc(C2CC2)c1)c1cn(CCC(F)Cn2cc(C(=O)NCc3cc(C4CC4)ccn3)nn2)nn1 (stereo not drawn) [Example 129, N-[(3-cyclopropylphenyl)methyl]-1-[4-(4-{[(4-cyclopropylpyridin-2-yl)methyl]carbamoyl}-1H-1,2,3-triazol-1-yl)-3-fluorobutyl]-1H-1,2,3-triazole-4-carboxamide] | < 100 | < 100
6 | CC(=O)Nc1ccc(CCCCn2cc(C(=O)NCc3cccc(OC(F)(F)F)c3)nn2)nn1 [Example 174, 1-[4-(6-acetamidopyridazin-3-yl)butyl]-N-{[3-(trifluoromethoxy)phenyl]methyl}-1H-1,2,3-triazole-4-carboxamide] | 100 to 500 | < 100
7 | O=C(NCc1cc(C(F)(F)F)ccn1)c1cn(CCCCn2cc(C(=O)NCC3CCCCC3)nn2)nn1 [Example 90] | 100 to 500 | 100 to 500
8 | O=C(NCC1CCCC1)c1cn(CCC(F)Cn2cc(C(=O)NCc3cc(C(F)(F)F)ccn3)nn2)nn1 (stereo not drawn) [Example 471, 1-(4-{4-[(cyclopentylmethyl)carbamoyl]-1H-1,2,3-triazol-1-yl}-2-fluorobutyl)-N-{[4-(trifluoromethyl)pyridin-2-yl]methyl}-1H-1,2,3-triazole-4-carboxamide] | 100 to 500 | < 100
9 | O=C(NCc1ncccc1F)c1cn(CCC(F)Cn2cc(C(=O)NCc3cc(OC(F)(F)F)ccc3F)nn2)nn1 (stereo not drawn) [Example 444, 1-{3-fluoro-4-[4-({[2-fluoro-5-(trifluoromethoxy)phenyl]methyl}carbamoyl)-1H-1,2,3-triazol-1-yl]butyl}-N-[(3-fluoropyridin-2-yl)methyl]-1H-1,2,3-triazole-4-carboxamide] | < 100 | < 100
10 | O=C(Cc1cccc(OC(F)(F)F)c1)Nc1nnc(CCCCn2cc(C(=O)N[C@H](CO)c3ccccc3)nn2)s1 [Example 23, N-[(1S)-2-hydroxy-1-phenylethyl]-1-[4-(5-{2-[3-(trifluoromethoxy)phenyl]acetamido}-1,3,4-thiadiazol-2-yl)butyl]-1H-1,2,3-triazole-4-carboxamide] | 100 to 500 | < 100
11 | CNC(=O)c1cn(CCCCc2ccc(NC(=O)CC3CCCC3)nn2)nn1 [Example 548, 1-{4-[6-(2-cyclopentylacetamido)pyridazin-3-yl]butyl}-N-methyl-1H-1,2,3-triazole-4-carboxamide] | 500 to 5000 | 100 to 500
12 | O=C(Cc1cccc(OC(F)(F)F)c1)Nc1cn(CCC(F)Cn2cc(C(=O)NCc3ccccn3)nn2)nn1 (stereo not drawn) [Example 403, 1-[2-fluoro-4-(4-{2-[3-(trifluoromethoxy)phenyl]acetamido}-1H-1,2,3-triazol-1-yl)butyl]-N-(pyridin-2-ylmethyl)-1H-1,2,3-triazole-4-carboxamide] | < 100 | < 100
13 | O=C(NCc1cccc(C2CC2)c1)c1cn(CCCCn2cc(C(=O)NCc3cc(C(F)(F)F)ccn3)nn2)nn1 [Example 105, 1-[4-(4-{[(3-cyclopropylphenyl)methyl]carbamoyl}-1H-1,2,3-triazol-1-yl)butyl]-N-{[4-(trifluoromethyl)pyridin-2-yl]methyl}-1H-1,2,3-triazole-4-carboxamide] | < 100 | < 100
14 | O=C(NCc1cccc(OC(F)(F)F)c1)c1cn(CCCCc2nnc(C(=O)NCc3ccc(C(F)(F)F)nc3)s2)nn1 [Example 78, 5-{4-[4-({[3-(trifluoromethoxy)phenyl]methyl}carbamoyl)-1H-1,2,3-triazol-1-yl]butyl}-N-{[6-(trifluoromethyl)pyridin-3-yl]methyl}-1,3,4-thiadiazole-2-carboxamide] | < 100 | < 100
15 | CC(C)CNC(=O)c1cn(CCCCc2ccc(NC(=O)Cc3ccccc3)nn2)nn1 [Example 24, N-(2-methylpropyl)-1-{4-[6-(2-phenylacetamido)pyridazin-3-yl]butyl}-1H-1,2,3-triazole-4-carboxamide] | < 100 | < 100
16 | CNC(=O)c1cn(C[C@@H](F)CCc2nnc(C(=O)NCc3cc(C(F)(F)F)ccn3)s2)nn1 (single isomer, unassigned) [Example 220] | 500 to 5000 | 100 to 500
17 | O=C(NCc1cccc(OC(F)(F)F)c1)c1cn(CCCCn2cc(C(=O)NCc3ccnc(C(F)(F)F)c3)nn2)nn1 [Example 122, 1-{4-[4-({[3-(trifluoromethoxy)phenyl]methyl}carbamoyl)-1H-1,2,3-triazol-1-yl]butyl}-N-{[2-(trifluoromethyl)pyridin-4-yl]methyl}-1H-1,2,3-triazole-4-carboxamide] | < 100 | < 100
18 | O=C(NCc1cccc(OC(F)(F)F)c1)c1cn(CCCCn2cc(C(=O)NCC3CCOCC3)nn2)nn1 [Example 94, N-(oxan-4-ylmethyl)-1-{4-[4-({[3-(trifluoromethoxy)phenyl]methyl}carbamoyl)-1H-1,2,3-triazol-1-yl]butyl}-1H-1,2,3-triazole-4-carboxamide] | 100 to 500 | 100 to 500
19 | CNC(=O)c1cn(CCC(F)Cn2cc(C(=O)NCc3ccc(OC(F)F)cc3)nn2)nn1 (stereo not drawn) [Example 181, 1{4-[4-({[4-(difluoromethoxy)phenyl]methyl}carbamoyl)-1H-1,2,3-triazol-1-yl]-3-fluorobutyl}-N-methyl-1H-1,2,3-triazole-4-carboxamide] | 500 to 5000 | 100 to 500
20 | O=C(Cc1cccc(OC(F)(F)F)c1)Nc1cn(CCC(F)Cn2cc(C(=O)NCc3ncccc3F)nn2)nn1 (stereo not drawn) [Example 406, 1-[2-fluoro-4-(4-{2-[3-(trifluoromethoxy)phenyl]acetamido}-1H-1,2,3-triazol-1-yl)butyl]-N-[(3-fluoropyridin-2-yl)methyl]-1H-1,2,3-triazole-4-carboxamide] | < 100 | < 100
21 | COCCNC(=O)c1nnc(CCCCc2ccc(NC(=O)Cc3cccc(OC(F)(F)F)c3)nn2)s1 [Example 6, N-(2-methoxyethyl)-5-(4-(6-(2-(3-(trifluoromethoxy)phenyl)acetamido)pyridazin-3-yl)butyl)-1,3,4-thiadiazole-2-carboxamide] | < 100 | < 100
22 | CNC(=O)c1cn(CCCCc2ccc(NC(=O)Cc3cc(-c4ccccc4OC(F)(F)F)ccn3)nn2)nn1 [Example 207, N-methyl-1-(4-(6-(2-(4-(2-(trifluoromethoxy)phenyl)pyridin-2-yl)acetamido)pyridazin-3-yl)butyl)-1H-1,2,3-triazole-4-carboxamide] | < 100 | < 100
23 | O=C(CN1CC(F)C1)Nc1cn(CCCCn2cc(C(=O)NCc3cccc(OC(F)(F)F)c3)nn2)nn1 [Example 329, 1-(4-{4-[2-(3-fluoroazetidin-1-yl)acetamido]-1H-1,2,3-triazol-1-yl}butyl)-N-{[3-(trifluoromethoxy)phenyl]methyl}-1H-1,2,3-triazole-4-carboxamide] | 500 to 5000 | 100 to 500
24 | O=C(NCc1ccnnc1)c1cn(CCCCn2cc(C(=O)NCc3cccc(OC(F)(F)F)c3)nn2)nn1 [Example 127, 1-(4-{4-[(pyridazin-4-ylmethyl)carbamoyl]-1H-1,2,3-triazol-1-yl}butyl)-N-{[3-(trifluoromethoxy)phenyl]methyl}-1H-1,2,3-triazole-4-carboxamide] | 500 to 5000 | 100 to 500
25 | Cc1ccc(CNC(=O)c2cn(CCCCn3cc(NC(=O)CC4CC4)nn3)nn2)cn1 [Example 300, 1-{4-[4-(2-cyclopropylacetamido)-1H-1,2,3-triazol-1-yl]butyl}-N-[(6-methylpyridin-3-yl)methyl]-1H-1,2,3-triazole-4-carboxamide] | > 5000 | 500 to 5000
26 | O=C(Cc1cccc(OC(F)(F)F)c1)Nc1nnc(CCC(F)Cn2cc(C(=O)NCc3ccc(C(F)(F)F)cn3)nn2)s1 (stereo not drawn) [Example 493, 1-[2-fluoro-4-(5-{2-[3-(trifluoromethoxy)phenyl]acetamido}-1,3,4-thiadiazol-2-yl)butyl]-N-{[5-(trifluoromethyl)pyridin-2-yl]methyl}-1H-1,2,3-triazole-4-carboxamide] | < 100 | < 100
27 | O=C(Cc1ccn[nH]1)Nc1nnc(CCC(F)Cn2cc(C(=O)NCc3cc(OC(F)(F)F)ccc3F)nn2)s1 (stereo not drawn) [Example 575, 1-(4-(5-(2-(1H-pyrazol-5-yl)acetamido)-1,3,4-thiadiazol-2-yl)-2-fluorobutyl)-N-(2-fluoro-5-(trifluoromethoxy)benzyl)-1H-1,2,3-triazole-4-carboxamide] | 100 to 500 | < 100

Reference: patent US10344025B2, “GLS1 inhibitors for treating disease” (Board of Regents, The University of Texas System, priority 2014, dated 2019)
